Laboratory results reported in US20110165115A1, “SYNERGISTIC ATTRACTANTS FOR PESTIFEROUS SOCIAL INSECTS” (STERLING INTERNATIONAL INC., priority 2010, published 2011).

Columns and labels:
[1] = tested on: Polistes dominulus worker antennae; assay: GC-EAD of cherry branch aeration samples
Description: Lapin cherry branches with severely damaged cherries and leaves and undamaged or slightly damaged branches were collected from a cherry orchard at Creston, Canada, on Jul. 29, 2009, and were transported to the Sterling International, Inc. lab (Spokane, Wash.) on the same day and kept at 4° C. before aerations. Headspace volatiles from the cherry branches (damaged or undamaged) were sampled by a battery operated pump and a high density polyacetate oven bag (48.2×59.6 cm Reynolds® Oven Bag; Richmond, Va., USA) enclosure with one activated charcoal filter tube in the air inlet, on Jul. 30, 2009. The volatiles in the enclosure were trapped on one Porapak Q tube (50/80 mesh; 30 mg in Teflon tube: 3 mm×35 mm) for 2.5 hr (airflow 300 ml/min) and extracted with 1 ml redistilled pentane. Aeration samples of the cherry branches (damaged or undamaged/slightly damaged) were injected (3 μl) splitless into a Varian CP-3800 GC equipped with a polar column (HP-INNOWax; 30 m×0.53 mm×1.0 μm film thickness; […] Helium was used as the carrier gas, and the injector and detector temperatures were 250° C. and 300° C., respectively. Column temperature was 50° C. for 1 min, rising to 240° C. at 10° C./min, and then held for 10 min. The outlet for the EAD was held in a humidified air stream flowing at 0.5 m/sec over the antennal preparation. EAD recordings were made using silver wire-glass capillary electrodes filled with Beadle-Ephrussi Ringer on freshly cut antennae. The antennal signals were stored and analyzed on a PC equipped with a serial IDAC interface box and the program EAD ver. 2.5 (Syntech, Hilversum, The Netherlands). […] (See FIG. 2.) The same chemicals were also tested on beneficial insect antennae from Chrysopa oculata, Myrmeleon crudelis, Podisus maculiventris, and Hippodarnia convergens. (See […] active peaks in the aeration samples were identified by GC-MS on an HP 6890 GC series coupled with an HP 5973 Mass Selective Detector using the same type of GC column and conditions as described above. Compounds were identified by comparison of retention times with those of authentic standards and with mass spectra of standards.

[2] = tested on: V. consobrina; type: in vivo, Vespula consobrina; conditions: Exp 1; HIPV added to WHY attractant in the top chamber, or WHY alone
Description: (§1) Three field trapping experiments were carried out during late July to early August 2009, in residential and woody areas around Spokane, Wash., USA, using the newly marketed Rescue® W•H•Y traps (www.rescue.com). As used herein, the W•H•Y trap is a trap in accordance with the description of United States Patent Application Publication No. 2009/0151228. The W•H•Y trap has a top chamber and a bottom chamber. The top chamber is baited with two attractants—one of which is a solid contained in a vial (2-methyl-1-butanol) and the other a liquid mixed with water (acetic acid), herein referred to as the W•H•Y top attractant. The bottom chamber is baited with a liquid attractant (heptyl butyrate) poured onto a cotton pad, herein referred to as the W•H•Y bottom attractant. Separation of the top and bottom attractants (otherwise antagonistic to each other when released from the same chamber) in two chambers was a design feature of this trap and creates two focal attraction sources from one trap for different species of wasps, hornets, and yellowjackets. Traps were hung 1.5-2.0 m above the ground on either the fence or tree branches ca. 5 m apart within each trap line. For each trapping experiment, six sets of traps were deployed with their initial trap positions within each set being randomized. To minimize positional effects and obtain more replications, wasp collections and trap re-randomization were carried out when ≧10-20 wasps were caught in the best trap. Each replicate lasted several days depending on wasp flight activity. Captured wasps were removed from the traps and kept in the zip-bags before taking back to the laboratory for recording of the species, gender status, and catch. […]
(§2) Trap catch data were converted to proportion (P) of total captured wasps within each replicate. Data were then transformed by arcsin√P to meet the assumptions of normality and homogeneity of variances for ANOVA. Means were compared by ANOVA followed by the Ryan-Einot-Gabriel-Welsh (REGW) multiple Q test (SPSS 16.0 for Windows) at α=0.05.

[3] = tested on: V. acadica; assay: Field trapping Experiment 3, different doses of DMNT alone; type: in vivo, Vespula acadica
Description: (§3) Three field trapping experiments were carried out during late July to early August 2009, in residential and woody areas around Spokane, Wash., USA, using the newly marketed Rescue® W•H•Y traps (www.rescue.com). As used herein, the W•H•Y trap is a trap in accordance with the description of United States Patent Application Publication No. 2009/0151228. The W•H•Y trap has a top chamber and a bottom chamber. The top chamber is baited with two attractants—one of which is a solid contained in a vial (2-methyl-1-butanol) and the other a liquid mixed with water (acetic acid), herein referred to as the W•H•Y top attractant. The bottom chamber is baited with a liquid attractant (heptyl butyrate) poured onto a cotton pad, herein referred to as the W•H•Y bottom attractant. Separation of the top and bottom attractants (otherwise antagonistic to each other when released from the same chamber) in two chambers was a design feature of this trap and creates two focal attraction sources from one trap for different species of wasps, hornets, and yellowjackets. Traps were hung 1.5-2.0 m above the ground on either the fence or tree branches ca. 5 m apart within each trap line. For each trapping experiment, six sets of traps were deployed with their initial trap positions within each set being randomized. To minimize positional effects and obtain more replications, wasp collections and trap re-randomization were carried out when ≧10-20 wasps were caught in the best trap. Each replicate lasted several days depending on wasp flight activity. Captured wasps were removed from the traps and kept in the zip-bags before taking back to the laboratory for recording of the species, gender status, and catch.
(§4) Experiment 3 (Aug. 5-13, 2009) was conducted to determine the potential behavioral activity of different doses of (E)-4,8-dimethyl-1,3,7-nonatriene alone. The individual (or different doses) HIPVs were loaded into either polyethylene bags or centrifuge tube type of dispensers, and released from the top of the W•H•Y trap chamber. W•H•Y trap attractants (both top and bottom or top only) alone and water (top chamber only) were included in the test as positive and blank controls, respectively. The dispenser types, loading and release rates of the tested semiochemicals are described in Tables 1, 2 and 3.
as §2

[4] = tested on: paper wasps; assay: Field trapping Experiment 1, top chamber catches; type: in vivo, P. dominulus and P. aurifer; conditions: Exp 1; HIPV combined with W•H•Y attractant (acetic acid and 2-methyl-1-butanol) in the top chamber
Description: as §1, with “randomized.” for “randomized. To minimize positional effects and obtain more replications, wasp collections and trap re-randomization were carried out when ≧10-20 wasps were caught in the best trap. Each replicate lasted several days depending on wasp flight activity. Captured wasps were removed from the traps and kept in the zip-bags before taking back to the laboratory for recording of the species, gender status, and catch.”

[5] = tested on: paper wasps, yellowjackets, or hornets; assay: Field trapping Experiment 3, DMNT alone; type: in vivo; conditions: Exp 3, different doses alone, without any W•H•Y attractants
Description: as §1, with “randomized.” for “randomized. To minimize positional effects and obtain more replications, wasp collections and trap re-randomization were carried out when ≧10-20 wasps were caught in the best trap. Each replicate lasted several days depending on wasp flight activity. Captured wasps were removed from the traps and kept in the zip-bags before taking back to the laboratory for recording of the species, gender status, and catch.”

[6] = tested on: V. vulgaris; assay: Field trapping Experiment 2, DMNT dose-response with W•H•Y top attractants; type: in vivo, Vespula vulgaris; conditions: Exp 2, DMNT added to WHY top attractant
Description: as §3, §4, §2

[7] = aeration of severely damaged cherry branches, at current release rates
[8] = aeration of undamaged or slightly damaged cherry branches

| Structure (SMILES) | EAD response of worker antennae [1, 7] | EAD response of worker antennae [1, 8] | Total Yellowjacket Catches V. consobrina [2] | Total Yellowjackets Caught V. acadica ([3]; Exp 3, release rate 0.25, hole 0.5 mm, loading 15 μL) | Total Yellowjackets Caught V. acadica ([3]; Exp 3, release rate 0.5, hole 1 mm, loading 30 μL) | Total Yellowjackets Caught V. acadica ([3]; Exp 3, release rate 1, hole 2 mm, loading 75 μL) | Total Yellowjackets Caught V. acadica ([3]; Exp 3, release rate 1.5, hole 3 mm, loading 175 μL) | Total Yellowjackets Caught V. acadica ([3]; Exp 3, release rate 2, hole 5.5 mm, loading 325 μL) | effect on trap catches of paper wasps in the top chambers [4] | attraction alone versus water blank control traps [5] | attraction alone versus water blank control traps ([5]; listed as DMNT) | Total Yellowjackets Caught V. vulgaris ([6]; release rate 0.25, hole 0.5 mm, loading 15 μL) | Total Yellowjackets Caught V. vulgaris ([6]; release rate 0.5, hole 1 mm, loading 30 μL) | Total Yellowjackets Caught V. vulgaris ([6]; release rate 1, hole 2 mm, loading 75 μL) | Total Yellowjackets Caught V. vulgaris ([6]; release rate 1.5, hole 3 mm, loading 175 μL) | Total Yellowjackets Caught V. vulgaris ([6]; release rate 2, hole 5.5 mm, loading 325 μL) |
| --- | --- | --- | --- | --- | --- | --- | --- | --- | --- | --- | --- | --- | --- | --- | --- | --- |
| CC/C=C\CCO [Z-3-Hexanol, (Z)-3-hexen-1-ol] | did not elicit significant EAD-responses | strongly responded | 0 | – | – | – | – | – | – | – | – | – | – | – | – | – |
| C=C/C=C(\C)CCC=C(C)C [(E)-4,8-dimethyl-1,3,7-nonatriene] | significant EAD response | – | 0 | 0 | 0 | 0 | 0 | 0 | significantly increased | not different | not significantly attractive | 8 | 8 | 5 | 5 | 1 |
| COC(=O)c1ccccc1O [Methyl Salicylate, methyl salicylate] | did not elicit significant EAD-responses | – | 2 | – | – | – | – | – | – | – | – | – | – | – | – | – |
| CC/C=C\CCOC(C)=O [Z-3-Hexenyl Acetate, (Z)-3-hexenyl acetate] | did not elicit significant EAD-responses | strongly responded | 1 | – | – | – | – | – | – | – | – | – | – | – | – | – |
